The record followed here is EPA's ToxValDB 9.5 (doi:10.2903/j.efsa.2018.5146).

The NOAEL is the highest tested level that showed no adverse finding. What is called LC50 is the concentration that kills 50% of the test population.

The conditions of data set [1]: chronic; duration: 133 days; other.
Another data set deals with Apis mellifera. Conditions: acute, mortality.
Another data set has as its system Folsomia candida. The conditions noted are these: chronic/long-term; reproduction.
Another data set concerns Mus musculus. Conditions: organ weight.
For another data set, the system named is Oncorhynchus mykiss. Conditions: acute; duration: 96 hours; mortality.
A further data set has as its system Rattus norvegicus. The conditions noted are these: acute; oral; mortality.
The next data set concerns Tagia sp. The conditions noted are these: chronic/long-term; reproduction.
In the next data set the test system is Aphidius rhopalosiphi. Nature of the data set: LR50; higher = less toxic. The conditions noted are these: acute; mortality.

Values after ≈ are worked out from the molar mass of the structure shown.

`COc1ccnc(C(=O)N[C@H]2COC(=O)[C@H](Cc3ccccc3)[C@@H](OC(=O)C(C)C)[C@H](C)OC2=O)c1OCOC(=O)C(C)C` [Fenpicoxamid]: the NOEC in data set [1] amounted to 0.0001 mg/L; in the data set with Colinus virginianus (reproduction developmental), 12.1 mg/kg-day; with Folsomia candida it was 3.97 mg/kg; in the data set with Tagia sp. it was 9.93 mg/kg. For the same molecule, the LD50 was over 202 µg/piece in the data set on Apis mellifera (dermal); over 303 µg/piece in the data set on Apis mellifera (oral, unspecified); over 2000 mg/kg-day in the data set with Colinus virginianus (acute, oral, mortality); over 2000 mg/kg-day with Rattus norvegicus. In addition, the NOAEL amounted to 5.27 mg/kg-day with Mus musculus (chronic, duration: 18 months); 39.6 mg/kg-day with Mus musculus (subchronic, duration: 90 days, oral); 495 mg/kg-day in the data set on Oryctolagus sp. (chronic, New Zealand, no effects); 177 mg/kg-day in the data set with Oryctolagus sp. (reproduction developmental, reproduction). This molecule also had an LC50 with Oncorhynchus mykiss of 1.1 µg/mL (≈ 1.79 µM). Also, in the data set with Aphidius rhopalosiphi, the LR50 is over 129 g/ha.
